Legend:
Rattus norvegicus [1] = organism: Rattus norvegicus; assay: Biodistribution of [123I]-label in rat kidneys was reported at 1 h post injection. Value shown is %ID/g of tissue; assay type: ADME, organism-based, Kidney; conditions: in vivo
Rattus norvegicus [2] = organism: Rattus norvegicus; assay: Biodistribution of [123I]-label in rat heart was reported at 24 hr post injection. Value shown is %ID/g of tissue; assay type: ADME, organism-based; conditions: in vivo
Rattus norvegicus [3] = organism: Rattus norvegicus; assay: Biodistribution of [123I]-label in rat stomach was reported at 4 hr post injection. Value shown is %ID/g of tissue; assay type: ADME, organism-based; conditions: in vivo
Rattus norvegicus [4] = organism: Rattus norvegicus; assay: Biodistribution of [123I]-label in rat spleen was reported at 24 h post injection. Value shown is %ID/g of tissue; assay type: ADME, organism-based; conditions: in vivo
Rattus norvegicus [5] = organism: Rattus norvegicus; assay: Biodistribution of [123I]-label in rat muscle was reported at 24 hr post injection. Value shown is %ID/g of tissue; assay type: ADME, organism-based; conditions: in vivo
Rattus norvegicus [6] = organism: Rattus norvegicus; assay: Biodistribution of [123I]-label in rat lung was reported at 0.33 hr post injection. Value shown is %ID/g of tissue; assay type: ADME, organism-based; conditions: in vivo
Rattus norvegicus [7] = organism: Rattus norvegicus; assay: Distribution of [123I]-label in rat brain (diencephalon) was reported at 20 min post injection. Value shown is %ID/g of tissue; assay type: ADME, organism-based; conditions: in vivo
Rattus norvegicus [8] = organism: Rattus norvegicus; assay: Biodistribution of [123I]-label in rat liver was reported at 24 h post injection. Value shown is %ID/g of tissue; assay type: ADME, organism-based; conditions: in vivo
Rattus norvegicus [9] = organism: Rattus norvegicus; assay: Distribution of [123I]-label in rat brain (striatum) was reported at 60 min post injection. Value shown is %ID/g of tissue; assay type: ADME, organism-based; conditions: in vivo, 1 h
Rattus norvegicus [10] = organism: Rattus norvegicus; assay: Biodistribution of [123I]-label in rat stomach was reported at 2 hr post injection. Value shown is %ID/g of tissue; assay type: ADME, organism-based; conditions: in vivo
Rattus norvegicus [11] = organism: Rattus norvegicus; assay: Biodistribution of [123I]-label in rat kidneys was reported at 2 hr post injection. Value shown is %ID/g of tissue; assay type: ADME, organism-based, Kidney; conditions: in vivo
Rattus norvegicus [12] = organism: Rattus norvegicus; assay: Biodistribution of [123I]-label in rat muscle was reported at 4 hr post injection. Value shown is %ID/g of tissue; assay type: ADME, organism-based; conditions: in vivo
Rattus norvegicus [13] = organism: Rattus norvegicus; assay: Biodistribution of [123I]-label in rat liver was reported at 0.33 hr post injection. Value shown is %ID/g of tissue; assay type: ADME, organism-based; conditions: in vivo
Rattus norvegicus [14] = organism: Rattus norvegicus; assay: Distribution of [123I]-label in rat brain (frontal cortex) was reported at 60 min post injection. Value shown is %ID/g of tissue; assay type: ADME, organism-based; conditions: in vivo, 1 h
Rattus norvegicus [15] = organism: Rattus norvegicus; assay: Biodistribution of [123I]-label in rat brain was reported at 24 hr post injection. Value shown is %ID/g of tissue; assay type: ADME, organism-based; conditions: in vivo
Rattus norvegicus [16] = organism: Rattus norvegicus; assay: Biodistribution of [123I]-label in rat muscle was reported at 1 hr post injection. Value shown is %ID/g of tissue; assay type: ADME, organism-based; conditions: in vivo
Rattus norvegicus [17] = organism: Rattus norvegicus; assay: Distribution of [123I]-label in rat brain (frontal cortex) was reported at 20 min post injection. Value shown is %ID/g of tissue; assay type: ADME, organism-based; conditions: in vivo
Rattus norvegicus [18] = organism: Rattus norvegicus; assay: Biodistribution of [123I]-label in rat brain was reported at 0.33 hr post injection. Value shown is %ID/g of tissue; assay type: ADME, organism-based; conditions: in vivo
Rattus norvegicus [19] = organism: Rattus norvegicus; assay: Biodistribution of [123I]-label in rat brain was reported at 0.33 hr post injection. Value shown is %ID/organ; assay type: ADME, organism-based; conditions: in vivo
Rattus norvegicus [20] = organism: Rattus norvegicus; assay: Biodistribution of [123I]-label in rat brain was reported at 1 hr post injection. Value shown is %ID/g of tissue; assay type: ADME, organism-based; conditions: in vivo
Rattus norvegicus [21] = organism: Rattus norvegicus; assay: Biodistribution of [123I]-label in rat brain was reported at 2 hr post injection. Value shown is %ID/organ; assay type: ADME, organism-based; conditions: in vivo
Rattus norvegicus [22] = organism: Rattus norvegicus; assay: Biodistribution of [123I]-label in rat thyroid was reported at 0.33 hr post injection. Value shown is %ID/organ; assay type: ADME, organism-based, Thyroid gland; conditions: in vivo
Rattus norvegicus [23] = organism: Rattus norvegicus; assay: Biodistribution of [123I]-label in rat spleen was reported at 0.33 hr post injection. Value shown is %ID/g of tissue; assay type: ADME, organism-based; conditions: in vivo
Rattus norvegicus [24] = organism: Rattus norvegicus; assay: Biodistribution of [123I]-label in rat thyroid was reported at 2 hr post injection. Value shown is %ID/organ; assay type: ADME, organism-based, Thyroid gland; conditions: in vivo
Rattus norvegicus [25] = organism: Rattus norvegicus; assay: Biodistribution of [123I]-label in rat blood was reported at 0.33 hr post injection. Value shown is %ID/g of tissue; assay type: ADME, organism-based; conditions: in vivo
Rattus norvegicus [26] = organism: Rattus norvegicus; assay: Distribution of [123I]-label in rat brain (medulla pons) was reported at 20 min post injection. Value shown is %ID/g of tissue; assay type: ADME, organism-based; conditions: in vivo
Rattus norvegicus [27] = organism: Rattus norvegicus; assay: Distribution of [123I]-label in rat brain (hippocampus) was reported at 20 min post injection. Value shown is %ID/g of tissue; assay type: ADME, organism-based; conditions: in vivo
Rattus norvegicus [28] = organism: Rattus norvegicus; assay: Distribution of [123I]-label in rat brain (midbrain) was reported at 20 min post injection. Value shown is %ID/g of tissue; assay type: ADME, organism-based; conditions: in vivo
Rattus norvegicus [29] = organism: Rattus norvegicus; assay: Biodistribution of [123I]-label in rat intestine was reported at 4 hr post injection. Value shown is %ID/g of tissue; assay type: ADME, organism-based; conditions: in vivo
Rattus norvegicus [30] = organism: Rattus norvegicus; assay: Biodistribution of [123I]-label in rat intestine was reported at 24 hr post injection. Value shown is %ID/g of tissue; assay type: ADME, organism-based; conditions: in vivo
Rattus norvegicus [31] = organism: Rattus norvegicus; assay: Biodistribution of [123I]-label in rat liver was reported at 4 hr post injection. Value shown is %ID/g of tissue; assay type: ADME, organism-based; conditions: in vivo
Rattus norvegicus [32] = organism: Rattus norvegicus; assay: Distribution of [123I]-label in rat brain (midbrain) was reported at 60 min post injection. Value shown is %ID/g of tissue; assay type: ADME, organism-based; conditions: in vivo, 1 h
Rattus norvegicus [33] = organism: Rattus norvegicus; assay: Biodistribution of [123I]-label in rat spleen was reported at 1 hr post injection. Value shown is %ID/g of tissue; assay type: ADME, organism-based; conditions: in vivo
Rattus norvegicus [34] = organism: Rattus norvegicus; assay: Biodistribution of [123I]-label in rat kidneys was reported at 24 hr post injection. Value shown is %ID/g of tissue; assay type: ADME, organism-based, Kidney; conditions: in vivo

## N#Cc1ccc(OCC2CCN(C/C=C/I)CC2)cc1
Rattus norvegicus [1]
  ID/g: 1.64%
Rattus norvegicus [2]
  ID/g: 0.18%
Rattus norvegicus [3]
  ID/g: 0.27%
Rattus norvegicus [4]
  ID/g: 0.87%
Rattus norvegicus [5]
  ID/g: 0.09%
Rattus norvegicus [6]
  ID/g: 6.59%
Rattus norvegicus [7]
  ID/g: 1.03%
Rattus norvegicus [8]
  ID/g: 0.55%
Rattus norvegicus [9]
  ID/g: 1.13%
Rattus norvegicus [10]
  ID/g: 0.3%
Rattus norvegicus [11]
  ID/g: 1.3%
Rattus norvegicus [12]
  ID/g: 0.2%
Rattus norvegicus [13]
  ID/g: 0.33%
Rattus norvegicus [14]
  ID/g: 1.29%
Rattus norvegicus [15]
  ID/g: 0.84%
Rattus norvegicus [16]
  ID/g: 0.29%
Rattus norvegicus [17]
  ID/g: 1.28%
Rattus norvegicus [18]
  ID/g: 1.06%
Rattus norvegicus [19]
  ID: 1.97%
Rattus norvegicus [20]
  ID/g: 1.09%
Rattus norvegicus [21]
  ID: 2.01%
Rattus norvegicus [22]
  ID: 0.09%
Rattus norvegicus [23]
  ID/g: 0.91%
Rattus norvegicus [24]
  ID: 0.27%
Rattus norvegicus [25]
  ID/g: 0.05%
Rattus norvegicus [26]
  ID/g: 0.95%
Rattus norvegicus [27]
  ID/g: 1.02%
Rattus norvegicus [28]
  ID/g: 1.06%
Rattus norvegicus [29]
  ID/g: 0.81%
Rattus norvegicus [30]
  ID/g: 0.74%
Rattus norvegicus [31]
  ID/g: 0.5%
Rattus norvegicus [32]
  ID/g: 1.17%
Rattus norvegicus [33]
  ID/g: 0.92%
Rattus norvegicus [34]
  ID/g: 0.59%

— ChEMBL document CHEMBL1130041, “Halogenated 4-(phenoxymethyl)piperidines as potential radiolabeled probes for sigma-1 receptors: in vivo evaluation of [123I]-1-(iodopropen-2-yl)-4-[(4-cyanophenoxy)methyl]pip eri dine” (J Med Chem, 1997)
